US20190038659A1, “METHODS OF TREATING AND PREVENTING AMYOTROPHIC LATERAL SCLEROSIS” (priority 2015, published 2019)
“Also recorded” adds a separate entry of the source. Like-named read-outs stand apart in the source and are kept apart here.

Experiments:
HERV-K viral transcripts = assay: HERV-K activation in human neuronal cultures after neuronal injury (viral transcripts); type: cell-based; settings: human neurons; 3 mM 3-nitropropionic acid, 100 μM N-methyl-D-aspartate or 100 μM hydrogen peroxide, 18 hours
[1] = tested on: HERV-K reverse transcriptase; assay: HERV-K RT activity in a cell-free system (PERT assay); type: biochemical, human endogenous retrovirus-K (HERV-K); settings: inhibitor added to extracted HERV-K RT just prior to PERT assay
VSV-G pseudotyped HERV-K = assay: cells; type: cell-based, human endogenous retrovirus-K (HERV-K); settings: for IC90: Homo sapiens, HeLa, 144 h, read-out: IC90, HERV-K replication (gag RNA by qPCR)
HERV-K protease = assay: HERV-K viral production from pCD-HK/Rev transfected HeLa cells with protease inhibitors (PERT assay of supernatant); type: cell-based, human endogenous retrovirus-K (HERV-K); settings: for IC90: Homo sapiens; for inhibition of HERV-K viral production (in words): inhibitors added 6 hr after transfection, PERT assay
[2] = 2-fold serial dilution 31.25 nM to 1 μM
[3] = 2-fold serial dilution 31.25 nM to 1 μM, PERT 48 hrs, read-out: IC90, HERV-K viral production
[4] = 10-fold serial dilution 0.001 μM-100 μM, PERT 48 hr post-treatment, read-out: IC90, HERV-K protease / viral production, extensive dose-response

O=C(O)CC[N+](=O)[O-] [3-nitropropionic acid]
activation of HERV-K (viral transcripts) (HERV-K viral transcripts): No activation of HERV-K

Nc1nc(NC2CC2)c2ncn([C@H]3C=C[C@@H](CO)C3)c2n1 [Abacavir]
inhibition of HERV-K RT activity [1]: significant and dose-dependent inhibition | inhibition of HERV-K replication (in words) (VSV-G pseudotyped HERV-K): effectively block; also recorded: inhibited HERV-K replication in a dose-dependent manner; also recorded: effectively inhibited | IC90 (VSV-G pseudotyped HERV-K): 175 nM

CC(C)CN(C[C@@H](O)[C@H](Cc1ccccc1)NC(=O)O[C@H]1CO[C@H]2OCC[C@H]21)S(=O)(=O)c1ccc(N)cc1 [Darunavir]
rank among the HIV protease inhibitors tested (HERV-K protease; [2]): highest efficacy; also recorded: two most potent drugs | IC90 (HERV-K protease; [3]): ~100 nM | IC90 (HERV-K protease; [4]): 71 nM | inhibition of HERV-K viral production (in words) (HERV-K protease): inhibited HERV-K protease in a dose-dependent manner

O=C1Nc2ccc(Cl)cc2[C@@](C#CC2CC2)(C(F)(F)F)O1 [Efirvarenz]
inhibition of HERV-K RT activity [1]: significant inhibition

Cc1cc(C#N)cc(C)c1Oc1nc(Nc2ccc(C#N)cc2)nc(N)c1Br [Etravirine]
inhibition of HERV-K RT activity [1]: significant inhibition

Cc1cccc(C)c1OCC(=O)N[C@@H](Cc1ccccc1)[C@@H](O)C[C@H](Cc1ccccc1)NC(=O)[C@H](C(C)C)N1CCCNC1=O [Lopinavir]
rank among the HIV protease inhibitors tested (HERV-K protease; [2]): highest efficacy; also recorded: two most potent drugs | IC90 (HERV-K protease; [3]): ~100 nM | IC90 (HERV-K protease; [4]): 651 nM | inhibition of HERV-K viral production (in words) (HERV-K protease): inhibited HERV-K protease in a dose-dependent manner

CN[C@H](CC(=O)O)C(=O)O [N-methyl-D-aspartate]
activation of HERV-K (viral transcripts) (HERV-K viral transcripts): No activation of HERV-K

Cc1ccnc2c1NC(=O)c1cccnc1N2C1CC1 [Nevirapine]
inhibition of HERV-K RT activity [1]: significant inhibition

Cc1nnc(C(=O)NC(C)(C)c2nc(C(=O)NCc3ccc(F)cc3)c(O)c(=O)n2C)o1 [Raltegravir]
inhibition of HERV-K replication (in words) (VSV-G pseudotyped HERV-K): effectively block; also recorded: inhibited the replication of HERV-K in a dose-dependent manner; also recorded: effectively inhibited | IC90 (VSV-G pseudotyped HERV-K): 75 nM

Cc1cn([C@H]2C=C[C@@H](CO)O2)c(=O)[nH]c1=O [Stavudine]
inhibition of HERV-K RT activity [1]: significant and dose-dependent inhibition

C[C@H](Cn1cnc2c(N)ncnc21)OCP(=O)(O)O [Tenofovir]
inhibition of HERV-K RT activity [1]: significant and dose-dependent inhibition

Cc1cn([C@H]2C[C@H](N=[N+]=[N-])[C@@H](CO)O2)c(=O)[nH]c1=O [Zidovudine]
inhibition of HERV-K RT activity [1]: significant and dose-dependent inhibition | inhibition of HERV-K replication (in words) (VSV-G pseudotyped HERV-K): effectively block; also recorded: inhibited HERV-K replication in a dose-dependent manner; also recorded: effectively inhibited | IC90 (VSV-G pseudotyped HERV-K): 70 nM

OO [hydrogen peroxide]
activation of HERV-K (viral transcripts) (HERV-K viral transcripts): No activation of HERV-K
